Here are results for four compounds from paper PMC12261233, “Photoactivatable Cyclometalated Ir(III) Compound Penetrates the Blood-Brain Barrier in 3D Spheroidal and Advanced 3D Organoid Models of Inherently Resistant and Aggressive Brain Tumors” (ACS Pharmacology & Translational Science, 2025).

Common to all, as to type: cell-based, human
In series [1] the test system is U87MG spheroids. The series is described as follows: Detection of ROS (CellRox) and PPI in spheroids by confocal microscopy. On the procedure:
We evaluated ROS induction in glioblastoma U87MG spheroids treated with Ir4 at its IC50 concentration for 3 h, followed by blue laser light irradiation (405 nm, 60 s, 1 mW). ROS levels were quantified using the CellRox probe, with PPI employed to assess immediate cell death. Z-stack imaging was performed before irradiation and at 1, 15, and 30 min postirradiation (Figure , panel I). Mean fluorescence intensity in the z-stack projections quantified ROS generation (Figure , panel II).
The spheroids were exposed to Ir4 (IC50, U87MG 3D, 72 h) for 3 h or maintained under drug-free conditions (control). Subsequently, the samples were stained with CellRox reagent (5 μM) and PPI (8 μg mL^–1) before being irradiated for 60 s with blue laser light (405 nm, 1 mW). Imaging of the samples was conducted before or immediately after the irradiation (1 min postirradiation) and at defined time intervals (15 and 30 min). The fluorescence scanning was performed sequentially in z-stack mode (10 z-stacks). Postirradiation imaging was conducted for a total of 90 min, with only the data collected up to 30 min being presented and quantified. The experiments were independently replicated in triplicate.

The subject of series [2] is hiPSC-derived cerebral organoids. In words: Cerebral organoid volume growth after treatment (healthy tissue). To be noted: fusion system, untreated control 25%. As to the method:
To assess the treatment’s impact on healthy tissue, cerebral organoid volumes were measured using phase-contrast or bright-field confocal microscopy with manually defined regions of interest.

In series [3] the test system is U87MG-RFP spheroids implanted into cerebral organoids. The series is described as follows: Glioblastoma intergrowth/spreading area in cerebral organoid-U87MG-RFP spheroid fusion system. To be noted: for glioblastoma spreading area, Δ 0h-120h, not irradiated: TMZ 100 μM or Ir4 2 μM for 3 h, no blue light. As to the method:
In this study, U87MG-RFP glioblastoma spheroids were preformed over 72 h, implanted into cerebral organoid tissue, and coembedded in Matrigel. […] Samples designated for irradiation were exposed to blue laser light (405 nm, 60 s, 1 mW) and subsequently cultured in drug-free medium for 120 h. Z-stacking confocal imaging and ImageJ analysis quantified the area of glioblastoma spreading (Figure , panels III and IV).
An implant fusion model was established to monitor the distribution of Ir4 within the tumor, represented by the implanted tumorspheres generated from U87MG, and healthy tissue, represented by the hiPSC-derived cerebral organoid. Before the implantation procedure, spheroids derived from U87MG glioblastoma were cultured for 72 h under 3D forming conditions using ULA plates (96-well U-shaped plate, Corning) in DMEM-F12 supplemented with 2% B27, epidermal growth factor (EGF) at 20 ng mL^–1, fibroblast growth factor 2 (FGF2) at 10 ng mL^–1, and BSA (0.15%). Cerebral organoids were generated through a four-step directed differentiation process from human induced pluripotent stem cells (hiPSCs, Gibco). The hiPSCs were cultured on Geltrex matrix (hESC-Qualified, Reduced Growth Factor Basement Membrane Matrix; Gibco) in StemFlex basal medium (DMEM/F12, Ham, 1:1) fully supplemented with StemFlex supplement (Gibco). The preformation of cerebral organoids, involving the formation of embryoid bodies (EBs), was maintained in U-shape ultralow attachment 96-well plates (ULA, Corning) with 9000 hiPSCs per well in fully supplemented Stemdiff Cerebral organoid medium and 10 μM of the rock inhibitor Y27632. The EBs were cultured for 4 days to establish round-shaped EBs with a diameter of approximately 400 μm. Subsequently, 2 EBs per well were transferred to 24-well ULA plates, and differentiation into neural ectoderm was induced for an additional 2 days using the Stemdiff Cerebral Organoid Kit (StemCell Technologies, CA). Following this, early organoids were embedded in the Matrigel matrix (suitable for organoid culture, Corning) and directed toward further differentiation into neuroectoderm. After the initial differentiation phase, early organoids were monitored for the development of optically clear neuroectoderm (characterized by an optically bright, translucent surface) and the formation of large buds of translucent ectoderm that were not radially organized. Postembedding, the organoids were cultured on 6-well ULA plates under continuous orbital shaker agitation (50 rpm). […] The samples were then transferred to confocal Petri dishes containing drug-free cerebral maturation medium and analyzed using a confocal microscope (Leica CM SP5, Leica, Germany). […]

The test system of series [4] is U87MG spheroids. In words: Calcein AM/PPI staining of Matrigel-embedded spheroids after single-spheroid 405 nm irradiation (confocal). To be noted: for change in calcein AM/PPI ratio with blue light irradiation: 405 nm irradiated; for change in calcein AM/PPI ratio under dark conditions: versus control. On the procedure:
Spheroids were treated with iridium complexes at IC50 concentrations (Table S4) for 3 h, followed by 405 nm laser irradiation for 60 s. After 24 h in a drug-free medium, spheroids were stained for analysis. Significant differences in live and dead cell counts were observed between irradiated and nonirradiated samples for Ir3 and Ir4, with morphological disruptions noted in treated spheroids, including reduced diameters and metabolically active cells concentrated in the core (Figure , panel III, inserts 2* and 4*).
Matrigel-embedded spheroids were treated for 3 h with the investigated compounds at concentrations corresponding to the IC50 determined for 3D cultures. Then, the samples were irradiated for 60 s with 405 nm laser light (1 mW) and placed in a drug-free, 3D forming medium for an additional 21 h. Then, treated and irradiated (or dark incubated controls) were stained with Hoechst 33258 (20 μg mL^–1), Calcein AM (2 μM), and PPI (8 μg mL^–1) for 2 h. Samples were sequentially imaged on a confocal microscope Leica CM SP5 (Leica, Germany), in 10 z-stack scans (20 μm each). Images were processed using ImageJ software. Fluorescence intensities were assessed for the maximal projections of the z-stacks, and the corresponding Calcein AM/PPI ratio was calculated. Hoechst dye was used to accurately define the Region of Interest (ROI) mask and analyze fluorescence intensities. Three independent experiments were carried out to ensure the reliability and reproducibility of the results. The representative images are shown.

Series [5] has as its system cerebral organoid with U87MG spheroid implant. The series is described as follows: Distribution of compound in organoid-spheroid implant model (confocal). To be noted: 5 μM. On the procedure: An implant fusion model was established to monitor the distribution of Ir4 within the tumor, represented by the implanted tumorspheres generated from U87MG, and healthy tissue, represented by the hiPSC-derived cerebral organoid. Before the implantation procedure, spheroids derived from U87MG glioblastoma were cultured for 72 h under 3D forming conditions using ULA plates (96-well U-shaped plate, Corning) in DMEM-F12 supplemented with 2% B27, epidermal growth factor (EGF) at 20 ng mL^–1, fibroblast growth factor 2 (FGF2) at 10 ng mL^–1, and BSA (0.15%). Cerebral organoids were generated through a four-step directed differentiation process from human induced pluripotent stem cells (hiPSCs, Gibco). The hiPSCs were cultured on Geltrex matrix (hESC-Qualified, Reduced Growth Factor Basement Membrane Matrix; Gibco) in StemFlex basal medium (DMEM/F12, Ham, 1:1) fully supplemented with StemFlex supplement (Gibco). […] After the initial differentiation phase, early organoids were monitored for the development of optically clear neuroectoderm (characterized by an optically bright, translucent surface) and the formation of large buds of translucent ectoderm that were not radially organized. […] The samples were then transferred to confocal Petri dishes containing drug-free cerebral maturation medium and analyzed using a confocal microscope (Leica CM SP5, Leica, Germany).

For the compound `CCCCn1c2[n+](c3cc(C(=O)OC)ccc31)[Ir-3]13([Cl])([c]4ccccc4-2)[n+]2ccccc2-c2cc(-c4ccc(C)cc4)cc([n+]21)-c1cccc[n+]13.F[P-](F)(F)(F)(F)F` [Ir4], in the series with U87MG spheroids [1] (15 and 30 min postirradiation), the “PPI fluorescence intensity postirradiation” value is given as “slight but significant increase”. Besides, the “ROS level compared to preirradiation level, 1 min” value in the series on U87MG spheroids [1] (IC50 3 h, 405 nm 60 s 1 mW, 1 min postirradiation) is reported as 1.8 fold. Further, the “ROS level compared to preirradiation level, 15 min” value with U87MG spheroids [1] (IC50 3 h, 405 nm 60 s 1 mW, 15 min postirradiation) stood at 2.3 fold. The “ROS level compared to preirradiation level, 30 min” value with U87MG spheroids [1] (IC50 3 h, 405 nm 60 s 1 mW, 30 min postirradiation) was 2.5 fold. In addition, in the series on U87MG spheroids [1] (IC50 (U87MG 3D, 72 h) for 3 h, CellRox, dark), the “ROS level versus untreated controls before laser irradiation” value was determined as 1.8 times. Also, the “increase in cerebral organoid volume over 120 h” value in series [2] was determined as 24%. The “glioblastoma spreading area, Δ 0h-120h, irradiated” value in series [3] (Ir4 2 μM 3 h, 405 nm 60 s 1 mW, 120 h drug-free) came out at 0.6 fold. Besides, the “glioblastoma spreading area, Δ 0h-120h, not irradiated” value in series [3] (120 h drug-free) was 2.1 fold. Besides, the “spreading area relative to TMZ” value in series [3] (nonirradiated, Ir4 concentration 50 times lower than TMZ) is reported as “four times smaller”. In addition, in the series with U87MG spheroids [4], the “change in calcein AM/PPI ratio with blue light irradiation” value is listed as “substantial decrease” and the “change in calcein AM/PPI ratio under dark conditions” value was “significant decrease”. In addition, in series [5], the “distribution in organoid-spheroid fusion system” value is “predominantly accumulated in malignant tissues”.
As for `Cn1nnc2c(C(N)=O)ncn2c1=O` [Temozolomide, reference compound], the “increase in cerebral organoid volume over 120 h” value in series [2] was 21%. Moreover, the “glioblastoma spreading area, Δ 0h-120h, not irradiated” value in series [3] (120 h drug-free) is reported as 8.7 fold.
For `Cc1ccc(-c2cc3[n+]4c(c2)-c2cccc[n+]2[Ir-3]42([Cl])([c]4cc5ccccc5cc4-c4n(Cc5ccc(C(F)(F)F)cc5)c5ccccc5[n+]42)[n+]2ccccc2-3)cc1.F[P-](F)(F)(F)(F)F` [Ir3], in the series with U87MG spheroids [4], the “change in calcein AM/PPI ratio with blue light irradiation” value is given as “substantial decrease” and the “change in calcein AM/PPI ratio under dark conditions” value is “insignificant changes”.
In the same order, the values of `Cc1ccc(-c2cc3[n+]4c(c2)-c2cccc[n+]2[Ir-3]42([Cl])([c]4c(ccc5c4OCO5)-c4n(Cc5ccc(C(F)(F)F)cc5)c5ccccc5[n+]42)[n+]2ccccc2-3)cc1.F[P-](F)(F)(F)(F)F` [Ir5] are “substantial decrease” and “insignificant changes”.
